Measured values from patent US20230381193A1, “METHODS FOR THE TREATMENT OF CHILDHOOD-ONSET FLUENCY DISORDER” (Noema Pharma AG, priority 2021, published 2023).
≈ marks a conversion by molar mass, not a printed value. Where two headings read alike, the source gives them in different places.

Assays:
SD rats [1] = assay: Oral glucose tolerance test, second study (acute treatment); format: in vivo, rat; settings: 10 mg/kg; for Glucose tolerance (oral glucose tolerance test): glucose 2 g/kg per os 1 hour post treatment
Experimental: The second study assessed the impact of acute treatment with the compound of Formula I. The study was conducted on 9-week male SD rats, which were fed with chow diet.

SD rats [2] = assay: Oral glucose tolerance test, third study (sub-chronic, 8 days, alone or in combination); format: in vivo, rat
Experimental: The third study evaluated sub-chronic (8 days) effects of the compound of Formula I alone or in combination with Olanzapine. […] The insulin was measured at time 0 only.

[3] = test system: adult male patients with COFD; assay: Study A: open-label Phase IIa 6-week study of safety and efficacy in COFD; format: in vivo, human; settings: 5 to 15 mg, once daily, oral; study design criterion
Experimental: Provided below is an open-label, Phase IIa, multi-center, 6-week prospective study to evaluate the safety and efficacy of the compound of Formula I at a daily dose range of 5 mg to 15 mg in adult male patients with COFD.

[4] = Preliminary forced degradation study (acidic, basic, oxidative, photolytic stress; excipient compatibility); format: physicochemical
Experimental: Stability: Preliminary forced degradation study of the crystalline form of the free base of the compound of Formula I in acidic, basic, oxidative, and photolytic stress conditions was conducted to investigate the viability of the crystalline form in various stress conditions. Since the solubility of the compound of Formula I was low in the standard solvent ethanol, ethanol was replaced by N-methyl-2-pyrrolidone (NMP).
The crystalline form of the free base of the compound of Formula I was stable for up to 8 days in solid state at 80° C. and in solution at pH 3 to pH 7 at RT. […] The crystalline form was stable after exposure to light in solid state.

[5] = Solubility of the crystalline form; format: physicochemical; settings: for solubility: thermodynamic from solid
Experimental: Solubility in simulated gastric fluid (SGF), fasted state simulated intestinal fluid (FaSSIF), and fed state simulated intestinal fluid (FeSSIF) was 0.019 mg/ml, 0.006 mg/mL, and 0.022 mg/mL, respectively. Solubility increased 50-100-fold in the presence of surfactants (e.g., Tween-80, sodium dodecyl sulfate, dioctyl sulfosuccinate, or Pluronic F68) and cyclodextrins; however it was still rather low.

[6] = Preliminary solid state stability (UPLC analysis); format: physicochemical
Experimental: A defined amount of the crystalline form of the free base of the compound of Formula I (0.2-0.8 mg) was weighed into a 1.8 mL HPLC vial and stored open (75% RH) or closed (ambient) at the temperature and the time indicated. After incubation, compound was dissolved in 1-1.5 mL NMP to a final concentration of 0.2-0.5 mg/mL and submitted to UPLC analysis (254 nm).

[7] = Stability in suspension vehicle and parenteral formulation; format: physicochemical; settings: 0.5% HPC/1% Tween 80, up to 5 weeks at RT
Experimental: For parenteral administration, a 30% Kleptose formulation (1.5 mg/ml, physiologic osmolality, pH 6.2), with a stability of at least 4 weeks at 40° C. was developed.

[8] = Thermodynamic stability of crystalline form; format: physicochemical; settings: at least between 20° C. and 60° C.
SD rats [9] = assay: Oral glucose tolerance test, first study (acute treatment); settings: 3 and 10 mg/kg
Experimental: The study was conducted on 10-week male SD rats fed with chow diet. The glucose challenge was performed 1 hour post last treatment. The glucose load was done per os per gavage (2 g/kg BW), and the formulation was made in saline. The blood glucose and plasma insulin were measured at 0 (before challenge), +15, +30, +60 and +120 minutes. Blood was sampled in EDTA coated tubes, and the blood samples were kept on ice until centrifuged at 4° C. ELISA for Insulin (Mercodia, Uppsala Sweden) and Fluorometric for measuring glucose (AccuCheck System) were used for the analysis. Data Analysis was done using the software JMP for Windows (Version 5.01, SAS institute Inc., SAS Campus Drive, Cary, NC 27513). Analysis of Variance ANOVA (alpha 0.05 and 0.01) followed by Dunnett's test (comparison vs. Control).

SMILES: Cn1ncc(C(=O)N2CCOCC2)c1C(=O)Nc1ccn2nc(-c3ccccc3)nc2c1 [compound of Formula I, 1-methyl-4-(morpholine-4-carbonyl)-N-(2-phenyl[1,2,4]triazolo[1,5-a]pyridin-7-yl)-1H-pyrazole-5-carboxamide]
- Glucose tolerance (oral glucose tolerance test) (SD rats [1]): did not induce any change
- Fasting blood glucose (SD rats [2]; repeated treatment, 8 days, 0.3 mg/kg): no change
- Glucose tolerance (oral glucose tolerance test) (SD rats [2]; repeated treatment, 8 days, 0.3 mg/kg, alone): slight glucose tolerance improvement
- Key secondary: Subject-rated Self Assessment of Stuttering [3]: Key secondary: Superior efficacy on the Subject-rated Self
- Safety: effect on blood glucose and lipids [3]: No or minimal effect on blood glucose and lipids
- Safety: patients with significant weight gain (greater than 7% versus baseline) [3]: Less than 5% of patients with significant weight gain (greater
- Secondary: percent of patients with stuttering freedom [3]: Secondary: Superior percent of patients with stuttering

SMILES: Cn1ncc(C(=O)N2CCOCC2)c1C(=O)Nc1ccn2nc(-c3ccccc3)nc2c1 [1-methyl-4-(morpholine-4-carbonyl)-N-(2-phenyl[1,2,4]triazolo[1,5-a]pyridin-7-yl)-1H-pyrazole-5-carboxamide]
- Excipient compatibility (CompaS assay) [4]: compatible with almost all excipients
- Stability towards oxidation ([4]; 1 day): stable
- Stability towards daylight ([4]; in solution): stable
- Stability in the Suntest ([4]; in solution, time dependent): moderately stable to unstable
- Stability in solution ([4]; pH 3 to pH 7 at RT): stable
- Stability in solution at higher or lower pH ([4]; pH above 7 or below 3): degradation was observed
- Stability towards oxidation ([4]; prolonged exposure): some sensitivity
- Stability after exposure to light ([4]; solid state): stable
- Stability in solid state ([4]; up to 8 days, 80° C.): stable
- solubility ([5]; aqueous solutions, 22 °C, aqueous buffer, pH>3, read-out: Solubility in aqueous solutions): < 4 µg/mL
- solubility ([5]; fasted state simulated intestinal fluid (FaSSIF), 22 °C, fassif, read-out: Solubility in fasted state simulated intestinal fluid (FaSSIF)): 6 µg/mL (≈ 13.9 µM)
- solubility ([5]; fed state simulated intestinal fluid (FeSSIF), 22 °C, fessif, read-out: Solubility in fed state simulated intestinal fluid (FeSSIF)): 22 µg/mL (≈ 51 µM)
- Solubility increase ([5]; in the presence of surfactants (e.g., Tween-80, sodium dodecyl sulfate, dioctyl sulfosuccinate, Pluronic F68) and cyclodextrins): 50-100 fold
- solubility ([5]; organic solvents, organic solvent or mixture, ambient temperature (22° C.), read-out: Solubility in most of the tested organic solvents): < 50000 µg/mL
- solubility ([5]; simulated gastric fluid (SGF), 22 °C, simulated gastric fluid, read-out: Solubility in simulated gastric fluid (SGF)): 19 µg/mL (≈ 44 µM)
- UPLC analysis (Area % main peak) ([6]; 4 w 60° C.): 100 Area %
- UPLC analysis (Area % main peak) ([6]; 4 w, 4° C.): 100 Area %
- UPLC analysis (Area % main peak) ([6]; 4 w, 40° C.): 100 Area %
- UPLC analysis (Area % main peak) ([6]; 4 w, 40° C., 75% RH): 100 Area %
- UPLC analysis (Area % main peak) ([6]; 4 w, RT): 100 Area %
- Time stable in solid state ([6]; 40-60° C.): at least 4 weeks
- UPLC analysis (Area % main peak) ([6]; 1 h, 80° C.): 100 Area %
- UPLC analysis (Area % main peak) ([6]; 1 d, 80° C.): 100 Area %
- UPLC analysis (Area % main peak) ([6]; 8 d, 80° C.): 100 Area %
- Degradation products ([6]; solid state, various temperatures): < 0.5%
- Particle growth and hydrate formation in suspension vehicle [7]: only minor particle growth and no hydrate formation
- Stability in suspension vehicle [7]: stable
- Thermodynamic stability [8]: thermodynamically stable

SMILES: Cc1cc2c(s1)Nc1ccccc1N=C2N1CCN(C)CC1 [Olanzapine, 2-Methyl-4-(4-methyl-1-piperazinyl)-10H-thieno[2,3-b][1,5]benzodiazepine]
- Glucose tolerance (oral glucose tolerance test) (SD rats [9]; glucose 2 g/kg per os 1 hour post treatment): dose-dependent glucose intolerance
- Fasting blood glucose (SD rats [9]; male SD rats): dose-dependent increase
- Fasting insulin (SD rats [9]; male SD rats): dose-dependent increase
- Glucose tolerance (oral glucose tolerance test) (SD rats [1]): glucose intolerance
- Fasting blood glucose (SD rats [1]; male SD rats): increase
- Glucose tolerance (oral glucose tolerance test) (SD rats [2]; acute treatment, 10 mg/kg, glucose 2 g/kg per os): glucose intolerance
- Fasting blood glucose (SD rats [2]; acute treatment, 10 mg/kg, male SD rats): increase
